This is an account of results in patent US20080280883A1, “Muscarinic Receptor Antagonists” (priority 2004, published 2008).

This assay relates to bladder pressure and salivation. As to the kind of experiment: In vivo experiments using anesthetized rabbit (carbachol challenge). The note with it: carbachol 1.5 ug/kg intra-arterial, from ID50 values, expressed as fold of selectivity of oxybutynin.

Turning to `CN1CCC(N(C)CC(O)C(O)(c2ccccc2)C2CCCC2)CC1` (centres unmarked) [Compound No. 24, 1-Cyclopentyl-3-[methyl-(1-methyl-piperidin-4-yl)-amino]-1-phenyl-propane-1,2-diol], the “Selectivity for bladder pressure inhibition vs. salivation” value is “about 2”.

Turning to `CC1=NCCN1CC(=O)[C@](O)(c1ccccc1)C1CCCC1` [Compound No. 85, (2R)-1-Cyclopentyl-1-hydroxy-3-(2-methyl-4,5-dihydro-imidazol-1-yl)-1-phenyl-propan-2-one], the “Selectivity for bladder pressure inhibition vs. salivation” value is “about 2”.
